Source: PMC13366236 (Acta Pharmaceutica Sinica. B, 2025)
Values joined by “and” are separate entries in the source; they are usually repeats but may differ in a detail not shown here. Identical values can stand only once. Marks after values point to notes of the source that are not given here. One block for each compound: values may come before it.

How the values were obtained:
CYP 3A4 = CYP 3A4 (Homo sapiens, UniProt P08684); assay: CYP enzyme inhibition; conditions: CYP 3A4 IC50
PI3Kδ = PI3Kδ (Homo sapiens, UniProt O00329); assay: biochemical
CYP 2D6 = CYP 2D6 (Homo sapiens, UniProt P10635); assay: CYP enzyme inhibition; conditions: CYP 2D6 IC50
MDA-MB-436 cells = assay: Cell viability CCK-8 assay; assay type: cell-based; conditions: Homo sapiens, MDA-MB-436, 48 h, read-out: Antiproliferative IC50 ± SD
CYP 2C9 = CYP 2C9 (Homo sapiens, UniProt P11712); assay: CYP enzyme inhibition; conditions: CYP 2C9 IC50
MDA-MB-231 cells [1] = assay: Cell viability CCK-8 assay; assay type: cell-based, human; conditions: for IC50: Homo sapiens, MDA-MB-231, 48 h, read-out: Antiproliferative IC50 ± SD
PI3Kγ = PI3Kγ (Homo sapiens, UniProt P48736); assay: biochemical
PI3Kα = PI3Kα (Homo sapiens, UniProt P42336); assay: biochemical
HCT-116 cells = assay: Cell viability CCK-8 assay; assay type: cell-based; conditions: Homo sapiens, HCT-116, 48 h, read-out: Antiproliferative IC50 ± SD
CYP 1A2 = CYP 1A2 (Homo sapiens, UniProt P05177); assay: CYP enzyme inhibition
CYP 2C19 = CYP 2C19 (Homo sapiens, UniProt P33261); assay: CYP enzyme inhibition; conditions: CYP 2C19 IC50
mTOR [2] = target: T1, mTOR (Homo sapiens, UniProt P42345); assay: mTOR kinase inhibition, Lance Ultra assay; assay type: biochemical; conditions: for IC50: mTOR, IC50, mean ± SD of triplicate measurements
MCF-7 cells = assay: Cell viability CCK-8 assay; assay type: cell-based; conditions: Homo sapiens, MCF7, 48 h, read-out: Antiproliferative IC50 ± SD
PI3Kβ = PI3Kβ (Homo sapiens, UniProt P42338); assay: biochemical
MDA-MB-231 cells [3] = assay: Wound healing; assay type: cell-based, human; conditions: MDA-MB-231, 0.25, 0.5, 1.0 μmol/L, concentration-dependent
MDA-MB-231 cells [4] = assay: Apoptosis, Annexin V-AF647/7AAD flow cytometry; assay type: cell-based, human; conditions: 24 h
[5] = system: panel of 200 human kinases; assay: Kinase-specificity profiling; assay type: binding; conditions: 1.0 μmol/L
MDA-MB-231 cells [6] = assay: Colony formation assay; assay type: cell-based, human; conditions: MDA-MB-231, 0.05, 0.1, 0.5 μmol/L
[7] = system: PI3K/Akt/mTOR signaling pathway; assay: Western blot of PI3K/Akt/mTOR signaling pathway in MDA-MB-231 cells; assay type: cell-based, human; conditions: MDA-MB-231, 0.5, 1, 2 μmol/L, 24 h
MDA-MB-231 cells [8] = assay: Autophagy induction, Western blot and LC3B immunofluorescence; assay type: cell-based, human; conditions: MDA-MB-231, 0.5, 1, 2 μmol/L, 24 h
PI3KC2g(h) = PI3KC2g(h) (Homo sapiens, UniProt O75747); assay: Kinase profiling; assay type: binding; conditions: 1.0 μmol/L
MDA-MB-468 cells = assay: Cell viability CCK-8 assay; assay type: cell-based; conditions: Homo sapiens
[9] = Pharmacokinetic study in SD rats; assay type: in vivo
MDA-MB-231 cells [10] = assay: Transwell invasion assay; assay type: cell-based, human; conditions: MDA-MB-231, concentration-dependent
MDA-MB-231 xenograft = MDA-MB-231 xenograft tumor model; assay type: in vivo, female BALB/c nude mice; conditions: i.v., Day 15; for Tumor size: mean ± SEM
mTOR [11] = target: T1, mTOR; assay: Cellular thermal shift assay; assay type: cell-based; conditions: MDA-MB-231 cells, 5 μmol/L, 8 h
[12] = system: cGAS/STING signaling pathway; assay: Western blot of cGAS/STING signaling pathway in MDA-MB-231 cells; assay type: cell-based, human; conditions: MDA-MB-231, 0.5‒2.0 μmol/L, 24 h
[13] = Sprague-Dawley, rat, plasma, iv, 5 mg/kg
[14] = Sprague-Dawley, rat, plasma, po, 20 mg/kg

Sequence of PI3Kβ (P42338 whole entry): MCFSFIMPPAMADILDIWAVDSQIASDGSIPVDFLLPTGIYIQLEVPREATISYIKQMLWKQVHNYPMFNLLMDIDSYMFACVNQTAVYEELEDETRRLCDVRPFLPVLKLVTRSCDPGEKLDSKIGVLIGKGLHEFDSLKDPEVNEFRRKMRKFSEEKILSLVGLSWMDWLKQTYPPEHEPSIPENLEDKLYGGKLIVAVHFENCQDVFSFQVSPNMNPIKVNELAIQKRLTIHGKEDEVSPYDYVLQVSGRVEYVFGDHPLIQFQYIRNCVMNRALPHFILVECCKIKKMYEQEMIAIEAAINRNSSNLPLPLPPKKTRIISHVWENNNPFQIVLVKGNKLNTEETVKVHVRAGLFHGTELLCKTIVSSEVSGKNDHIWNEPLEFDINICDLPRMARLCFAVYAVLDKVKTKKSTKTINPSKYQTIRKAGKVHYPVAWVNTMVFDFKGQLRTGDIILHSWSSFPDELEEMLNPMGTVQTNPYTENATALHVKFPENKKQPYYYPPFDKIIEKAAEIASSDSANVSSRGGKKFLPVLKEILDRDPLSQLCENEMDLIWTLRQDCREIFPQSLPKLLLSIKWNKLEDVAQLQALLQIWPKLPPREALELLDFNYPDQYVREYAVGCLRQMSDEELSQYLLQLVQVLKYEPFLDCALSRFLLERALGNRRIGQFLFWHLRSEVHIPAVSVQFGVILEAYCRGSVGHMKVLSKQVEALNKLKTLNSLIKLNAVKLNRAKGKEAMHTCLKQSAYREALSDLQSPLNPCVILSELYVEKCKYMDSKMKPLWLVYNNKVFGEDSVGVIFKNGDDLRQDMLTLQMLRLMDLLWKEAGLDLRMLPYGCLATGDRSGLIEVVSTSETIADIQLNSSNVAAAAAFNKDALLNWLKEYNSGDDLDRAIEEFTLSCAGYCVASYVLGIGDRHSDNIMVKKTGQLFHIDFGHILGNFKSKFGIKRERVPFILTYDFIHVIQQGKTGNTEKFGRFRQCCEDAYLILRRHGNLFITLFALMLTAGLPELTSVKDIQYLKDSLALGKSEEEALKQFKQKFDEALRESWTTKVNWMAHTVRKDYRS
Sequence of PI3Kβ (P27986 whole entry partner): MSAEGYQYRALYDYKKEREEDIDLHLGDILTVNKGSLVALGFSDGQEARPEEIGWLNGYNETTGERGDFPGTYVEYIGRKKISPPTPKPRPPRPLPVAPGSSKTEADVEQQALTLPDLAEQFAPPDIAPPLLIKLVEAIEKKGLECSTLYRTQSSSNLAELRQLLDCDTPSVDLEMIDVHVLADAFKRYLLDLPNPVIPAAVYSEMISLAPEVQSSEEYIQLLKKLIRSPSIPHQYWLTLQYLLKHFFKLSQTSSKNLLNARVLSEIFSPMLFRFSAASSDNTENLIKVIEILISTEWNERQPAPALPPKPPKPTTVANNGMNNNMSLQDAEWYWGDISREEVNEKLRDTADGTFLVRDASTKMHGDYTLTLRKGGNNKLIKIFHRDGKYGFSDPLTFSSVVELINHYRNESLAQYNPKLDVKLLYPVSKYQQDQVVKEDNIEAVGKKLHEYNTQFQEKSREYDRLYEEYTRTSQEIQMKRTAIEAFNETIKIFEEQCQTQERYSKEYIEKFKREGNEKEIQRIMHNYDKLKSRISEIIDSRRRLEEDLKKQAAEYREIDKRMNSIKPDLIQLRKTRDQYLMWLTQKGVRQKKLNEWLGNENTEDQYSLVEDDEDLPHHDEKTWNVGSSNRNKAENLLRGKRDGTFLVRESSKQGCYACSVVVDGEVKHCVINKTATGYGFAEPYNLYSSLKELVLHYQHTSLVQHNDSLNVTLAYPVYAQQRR
Sequence of CYP 2C19 (P33261 whole entry): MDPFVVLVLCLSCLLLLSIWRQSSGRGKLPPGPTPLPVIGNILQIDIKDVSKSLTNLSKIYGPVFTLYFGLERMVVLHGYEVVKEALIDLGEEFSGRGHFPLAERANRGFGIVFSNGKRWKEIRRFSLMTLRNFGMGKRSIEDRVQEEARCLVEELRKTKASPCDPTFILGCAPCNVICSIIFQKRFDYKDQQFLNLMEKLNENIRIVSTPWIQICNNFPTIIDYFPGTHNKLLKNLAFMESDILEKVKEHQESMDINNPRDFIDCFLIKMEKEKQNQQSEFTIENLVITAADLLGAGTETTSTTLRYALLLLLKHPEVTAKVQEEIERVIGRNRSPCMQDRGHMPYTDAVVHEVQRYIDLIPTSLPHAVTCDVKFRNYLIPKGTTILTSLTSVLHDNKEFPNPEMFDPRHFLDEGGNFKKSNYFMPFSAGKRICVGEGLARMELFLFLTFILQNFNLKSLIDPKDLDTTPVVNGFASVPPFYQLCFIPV
Sequence of PI3Kα (P42336 whole entry): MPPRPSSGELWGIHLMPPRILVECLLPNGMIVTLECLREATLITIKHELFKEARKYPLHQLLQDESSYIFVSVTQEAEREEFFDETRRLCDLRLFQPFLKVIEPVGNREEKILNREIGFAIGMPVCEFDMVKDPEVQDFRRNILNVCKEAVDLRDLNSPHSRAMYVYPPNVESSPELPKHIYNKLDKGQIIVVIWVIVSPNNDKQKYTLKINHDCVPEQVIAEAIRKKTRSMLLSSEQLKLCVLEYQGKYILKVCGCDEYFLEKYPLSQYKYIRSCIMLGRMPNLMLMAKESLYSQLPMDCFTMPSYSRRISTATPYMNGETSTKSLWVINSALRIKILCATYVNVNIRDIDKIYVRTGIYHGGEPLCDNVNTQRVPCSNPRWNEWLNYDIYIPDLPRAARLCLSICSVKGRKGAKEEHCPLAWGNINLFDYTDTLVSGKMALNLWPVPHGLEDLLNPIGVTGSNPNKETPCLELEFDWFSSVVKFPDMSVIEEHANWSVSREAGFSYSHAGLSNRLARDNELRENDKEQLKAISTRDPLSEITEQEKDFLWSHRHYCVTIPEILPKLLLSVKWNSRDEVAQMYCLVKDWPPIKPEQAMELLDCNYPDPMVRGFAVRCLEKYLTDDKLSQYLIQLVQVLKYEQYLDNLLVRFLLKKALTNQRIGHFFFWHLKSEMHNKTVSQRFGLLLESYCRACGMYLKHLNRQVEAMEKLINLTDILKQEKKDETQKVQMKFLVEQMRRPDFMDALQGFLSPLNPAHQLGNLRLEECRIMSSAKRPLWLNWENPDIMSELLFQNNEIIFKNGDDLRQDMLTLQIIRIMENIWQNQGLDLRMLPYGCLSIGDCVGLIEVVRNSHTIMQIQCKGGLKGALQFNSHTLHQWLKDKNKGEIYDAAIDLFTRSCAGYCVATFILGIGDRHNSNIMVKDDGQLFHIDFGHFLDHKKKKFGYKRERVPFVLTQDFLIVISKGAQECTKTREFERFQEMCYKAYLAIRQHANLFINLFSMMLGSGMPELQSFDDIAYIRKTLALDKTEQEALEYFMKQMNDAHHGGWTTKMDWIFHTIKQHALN
Sequence of PI3Kα (P27986 whole entry partner): as the sequence (P27986 whole entry partner) above
Sequence of CYP 2C9 (P11712 whole entry): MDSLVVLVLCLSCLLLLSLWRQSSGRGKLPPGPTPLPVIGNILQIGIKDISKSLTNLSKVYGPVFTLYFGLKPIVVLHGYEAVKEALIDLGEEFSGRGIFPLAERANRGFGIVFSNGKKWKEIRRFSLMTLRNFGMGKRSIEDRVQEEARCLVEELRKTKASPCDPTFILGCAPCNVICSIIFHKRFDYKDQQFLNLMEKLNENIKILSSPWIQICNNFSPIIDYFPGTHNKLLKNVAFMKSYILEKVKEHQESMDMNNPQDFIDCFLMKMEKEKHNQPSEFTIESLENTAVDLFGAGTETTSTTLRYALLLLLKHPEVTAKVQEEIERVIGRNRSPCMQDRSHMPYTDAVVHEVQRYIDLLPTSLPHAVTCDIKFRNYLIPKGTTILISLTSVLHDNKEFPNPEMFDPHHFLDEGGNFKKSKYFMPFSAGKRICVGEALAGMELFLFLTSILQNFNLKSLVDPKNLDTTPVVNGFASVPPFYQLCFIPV
Sequence of CYP 3A4 (P08684 whole entry): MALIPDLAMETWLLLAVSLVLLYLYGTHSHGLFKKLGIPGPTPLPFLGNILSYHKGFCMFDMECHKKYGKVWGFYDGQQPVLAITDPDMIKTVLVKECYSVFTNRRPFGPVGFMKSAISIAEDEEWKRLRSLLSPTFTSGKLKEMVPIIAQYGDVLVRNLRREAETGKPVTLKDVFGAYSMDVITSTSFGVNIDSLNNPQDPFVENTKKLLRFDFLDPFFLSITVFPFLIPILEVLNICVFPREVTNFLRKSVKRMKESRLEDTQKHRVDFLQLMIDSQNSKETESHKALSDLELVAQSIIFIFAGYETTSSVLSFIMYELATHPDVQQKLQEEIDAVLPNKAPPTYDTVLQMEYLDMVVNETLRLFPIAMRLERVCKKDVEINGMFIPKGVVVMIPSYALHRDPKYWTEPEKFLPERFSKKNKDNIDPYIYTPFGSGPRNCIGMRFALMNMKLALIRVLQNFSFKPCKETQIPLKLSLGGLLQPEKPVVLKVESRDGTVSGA
Sequence of CYP 1A2 (P05177 whole entry): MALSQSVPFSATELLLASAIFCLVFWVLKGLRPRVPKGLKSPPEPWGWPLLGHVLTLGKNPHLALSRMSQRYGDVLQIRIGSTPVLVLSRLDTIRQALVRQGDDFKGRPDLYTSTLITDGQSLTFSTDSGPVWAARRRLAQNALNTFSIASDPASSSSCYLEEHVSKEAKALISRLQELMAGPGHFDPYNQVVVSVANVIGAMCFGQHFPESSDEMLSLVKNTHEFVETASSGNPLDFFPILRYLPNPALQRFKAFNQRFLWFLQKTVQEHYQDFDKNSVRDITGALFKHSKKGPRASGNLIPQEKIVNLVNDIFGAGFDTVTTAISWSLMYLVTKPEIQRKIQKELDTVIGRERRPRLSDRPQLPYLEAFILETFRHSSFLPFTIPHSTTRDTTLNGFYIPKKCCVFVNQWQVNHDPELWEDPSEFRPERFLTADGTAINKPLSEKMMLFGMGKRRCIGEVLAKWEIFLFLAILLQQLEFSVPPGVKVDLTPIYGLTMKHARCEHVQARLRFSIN

Compound: NCCC(=O)Nc1ccccc1/N=c1\cc(-c2ccc3nc(N)oc3c2)oc2ccccc12 [Compound 12a, (E)-3-amino-N-(2-((2-(2-aminobenzo[d]oxazol-6-yl)-4H-chromen-4-ylidene)amino)phenyl)propanamide]
IC50 (CYP 3A4): 7860 nM
IC50 (PI3Kδ): > 10000 nM
IC50 (CYP 2D6): 5520 nM
IC50 (MDA-MB-436 cells): 498 ± 18.1 nM
IC50 (CYP 2C9): 140 nM
IC50 (MDA-MB-231 cells [1]): 337 ± 12.8 nM
IC50 (PI3Kγ): > 10000 nM
IC50 (PI3Kα): > 10000 nM
IC50 (HCT-116 cells): 1510 ± 361 nM
IC50 (CYP 1A2): > 50000 nM
IC50 (CYP 2C19): 680 nM
IC50 (mTOR [2]): 45.2 ± 8.8 nM
fold more potent than the lead compound MT-1 (mTOR IC50) (mTOR [2]; vs MT-1): 34 fold
IC50 (MCF-7 cells): 118 ± 63.6 nM
IC50 (PI3Kβ): > 10000 nM

Compound: CNCCC(=O)Nc1ccccc1/N=c1\cc(-c2ccc3nc(N)oc3c2)oc2ccccc12 [Compound 12c, (E)-N-(2-((2-(2-aminobenzo[d]oxazol-6-yl)-4H-chromen-4-ylidene)amino)phenyl)-3-(methylamino)propanamide]
IC50 (MDA-MB-436 cells): 566 ± 9.1 nM
IC50 (MDA-MB-231 cells [1]): 104 ± 3.3 nM
IC50 (HCT-116 cells): 900.5 ± 5.5 nM
IC50 (mTOR [2]): 473 ± 42.4 nM
IC50 (MCF-7 cells): 1316 ± 6.4 nM

Compound: Nc1nc2ccc(-c3c/c(=N\c4ccccc4NC(=O)C4CCNC4)c4ccccc4o3)cc2o1 (stereo not shown) [Compound 12i, (E)-N-(2-((2-(2-aminobenzo[d]oxazol-6-yl)-4H-chromen-4-ylidene)amino)phenyl)pyrrolidine-3-carboxamide]
IC50 (MDA-MB-231 cells [1]): 285 ± 425 nM
IC50 (HCT-116 cells): 313200 ± 5.7 nM
IC50 (mTOR [2]): 165 ± 8.1 nM
IC50 (MCF-7 cells): 1487 ± 2.8 nM

Compound: COc1ccc2oc(-c3ccc4nc(N)oc4c3)c/c(=N\c3ccccc3NC(=O)CCN)c2c1 [Compound 12j, (E)-3-amino-N-(2-((2-(2-aminobenzo[d]oxazol-6-yl)-6-methoxy-4H-chromen-4-ylidene)amino)phenyl)propanamide]
anti-migration effect (MDA-MB-231 cells [3]): significantly inhibit the migration
percentage of total apoptotic cells (MDA-MB-231 cells [4]; MDA-MB-231, 0.5 μmol/L): 4.73%
percentage of total apoptotic cells (MDA-MB-231 cells [4]; MDA-MB-231, 1 μmol/L): 9.43%
percentage of total apoptotic cells (MDA-MB-231 cells [4]; MDA-MB-231, 2 μmol/L): 22.23%
binding activity to the panel of kinases [5]: no obvious binding activity
IC50 (CYP 3A4): > 50000 nM
IC50 (PI3Kδ): > 10000 nM
colony formation ability (MDA-MB-231 cells [6]): significantly inhibited
IC50 (CYP 2D6): 19900 nM
expression of p-P70S6K(Thr389), p-Akt(Ser473), p-4EBP1(Thr37/46) [7]: significantly downregulated in a concentration-dependent manner
IC50 (MDA-MB-436 cells): 148 ± 1.7 nM
autophagy induction (MDA-MB-231 cells [8]): significantly enhanced autophagy induction
IC50 (CYP 2C9): > 50000 nM
binding to PI3KC2γ (PI3KC2g(h)): weak binding
IC50 (MDA-MB-231 cells [1]): 66.5 ± 1.5 nM
fold more potent antiproliferative effect than Doxorubicin (MDA-MB-231 cells [1]; MDA-MB-231): 1.1 fold
fold more potent antiproliferative effect than Everolimus (MDA-MB-231 cells [1]; MDA-MB-231): 34.4 fold
IC50 (PI3Kγ): > 10000 nM
IC50 (MDA-MB-468 cells; MDA-MB-468, read-out: Antiproliferative IC50): 148 nM
inhibition at 1 µM (MDA-MB-468 cells; MDA-MB-468, read-out: Inhibition rate @ 1.0 μmol/L): 74%
Cl ([9]; SD rats, i.g. 20 mg/kg): 0.75 ± 0.07 mL/min/kg
Vss ([9]; SD rats, i.g. 20 mg/kg): 15.04 ± 4.24 L/kg
AUC(0-inf) [9, 13]: 29900 ng·h/mL
AUC(0-t) [9, 13]: 28800 ng·h/mL
Cmax [9, 13]: 29200 ng/mL
MRT last [9, 13]: 2.93 ± 0.16 h
Tmax [9, 13]: 0.05 h
Vd [9, 13]: 4.43 ± 0.93 L/kg
clearance [9, 13]: 2.83 mL/min/kg
half-life [9, 13]: 14.1 ± 3.35 h
bioavailability ([9]; Sprague-Dawley, rat, plasma, oral, 20 mg/kg): 4.75%
AUC(0-inf) [9, 14]: 5680 ± 501 ng·h/mL
AUC(0-t) [9, 14]: 5300 ± 514 ng·h/mL
Cmax [9, 14]: 1150 ± 174 ng/mL
MRT last [9, 14]: 5.44 ± 0.2 h
Tmax [9, 14]: 1.4 ± 0.55 h
half-life [9, 14]: 14 ± 4.11 h
invasion (MDA-MB-231 cells [10]): significantly inhibit the invasion
T/C (MDA-MB-231 xenograft; 10 mg/kg, Q3D × 6): 61.36%
TGI (MDA-MB-231 xenograft; 10 mg/kg, Q3D × 6, listed as MT-44): 38.64% and 38.64 ^d %
Tumor size (MDA-MB-231 xenograft; 10 mg/kg, Q3D × 6): 210.95 ± 33.18 mm^3
T/C (MDA-MB-231 xenograft; 20 mg/kg, Q3D × 6): 27.27%
TGI (MDA-MB-231 xenograft; 20 mg/kg, Q3D × 6, listed as MT-44): 72.73% and 72.73 ^e %
Tumor size (MDA-MB-231 xenograft; 20 mg/kg, Q3D × 6): 115.97 ± 20.63 mm^3
IC50 (PI3Kα): > 10000 nM
IC50 (HCT-116 cells): 555 ± 315 nM
target engagement of mTOR in CETSA (mTOR [11]): directly interacts with mTOR protein
IC50 (CYP 1A2): > 50000 nM
IC50 (CYP 2C19): > 50000 nM
IC50 (mTOR [2]): 49.4 ± 17.1 nM
phosphorylation of STING(Ser366), TBK(Ser172), IRF3(Ser366) [12]: concentration-dependent increase
IC50 (MCF-7 cells): 328 ± 5.4 nM
IC50 (PI3Kβ): > 10000 nM

Compound: NCCC(=O)Nc1ccccc1/N=c1\cc(-c2ccc3nc(N)oc3c2)oc2ccc(F)cc12 [Compound 12k, (E)-3-amino-N-(2-((2-(2-aminobenzo[d]oxazol-6-yl)-6-fluoro-4H-chromen-4-ylidene)amino)phenyl)propanamide]
IC50 (MDA-MB-436 cells): 112 ± 62.3 nM
IC50 (MDA-MB-231 cells [1]): 125 ± 5.9 nM
IC50 (HCT-116 cells): 307.9 ± 2.2 nM
IC50 (mTOR [2]): 166 ± 6.3 nM
IC50 (MCF-7 cells): 211 ± 87.7 nM

Second part, led by results:

IC50 (MDA-MB-436 cells): > 10000 nM
IC50 (MDA-MB-231 cells [1]): > 10000 nM
IC50 (HCT-116 cells): > 10000 nM
IC50 (mTOR [2]): 40.2 ± 1 nM
IC50 (MCF-7 cells): > 10000 nM
Compound: NCCC(=O)Nc1ccccc1/N=c1\cc(-c2ccc3nc(N)oc3c2)oc2cc(O)ccc12 [Compound 12m, (E)-3-amino-N-(2-((2-(2-aminobenzo[d]oxazol-6-yl)-7-hydroxy-4H-chromen-4-ylidene)amino)phenyl)propanamide]

IC50 (MDA-MB-231 cells [1]): 1770 ± 473 nM
IC50 (HCT-116 cells): 1570 ± 132 nM
IC50 (mTOR [2]): 26.3 ± 0.2 nM
fold more potent than 12a (mTOR IC50) (mTOR [2]; vs 12a): 1.72 fold
IC50 (MCF-7 cells): 547 ± 679 nM
Compound: NCCC(=O)Nc1ccccc1/N=c1\cc(-c2ccc3nc(N)oc3c2)oc2ccc(O)cc12 [Compound 12n, (E)-3-amino-N-(2-((2-(2-aminobenzo[d]oxazol-6-yl)-6-hydroxy-4H-chromen-4-ylidene)amino)phenyl)propanamide]

IC50 (MDA-MB-231 cells [1]): 75.6 nM
Compound: COc1cccc2c1C(=O)c1c(O)c3c(c(O)c1C2=O)C[C@@](O)(C(=O)CO)C[C@@H]3O[C@H]1C[C@H](N)[C@H](O)[C@H](C)O1 [Doxorubicin, reference compound]
T/C (MDA-MB-231 xenograft; 2.5 mg/kg, Q7D × 2): 31.82%
TGI (MDA-MB-231 xenograft; 2.5 mg/kg, Q7D × 2): 68.18 ^d %
Tumor size (MDA-MB-231 xenograft; 2.5 mg/kg, Q7D × 2): 115.17 ± 32.95 mm^3

IC50 (MDA-MB-436 cells): > 10000 nM
IC50 (MDA-MB-231 cells [1]): > 10000 nM
IC50 (HCT-116 cells): > 10000 nM
IC50 (MCF-7 cells): 2790 ± 346 nM
Compound: Oc1cccc(-c2nc(N3CCOCC3)c3oc4ncccc4c3n2)c1 [PI-103, reference compound]
anti-migration effect (MDA-MB-231 cells [3]): significantly inhibit the migration
percentage of total apoptotic cells (MDA-MB-231 cells [4]; MDA-MB-231, 2 μmol/L): 4.47%
colony formation ability (MDA-MB-231 cells [6]): significantly inhibited
T/C (MDA-MB-231 xenograft; 20 mg/kg, Q3D × 6): 61.36%
TGI (MDA-MB-231 xenograft; 20 mg/kg, Q3D × 6): 38.64 ^d %
Tumor size (MDA-MB-231 xenograft; 20 mg/kg, Q3D × 6): 256.59 ± 40.06 mm^3
